# According to publication PMC3323469, “Comparative study of ^64Cu/NOTA-[D-Tyr^6,βAla^11,Thi^13,Nle^14]BBN(6-14) monomer and dimers for prostate cancer PET imaging” (EJNMMI Research, 2012):
# Numbered stars: 1 amine (or outer) side, 2 acyl side, 3 side chain; on linkers, the order of the positions; unused ones are H or OH. Bridge positions count the residues as written; N and C are the ends. Square brackets hold non-standard residues; d marks the D form. Peptide text beside a SMILES is read from it. I, II: the chains in the order shown. * marks the point of attachment. NOTA = O=C(O)CN1CCN(CC(=O)O)CCN(CC(=O)*)CC1; X1 = O=C(CCC(=O)[*:2])NCCOCCOCC(=O)[*:1]; 2Thi = N[C@@H](Cc1cccs1)C(=O)O; Nle = CCCC[C@H](N)C(=O)O; AEEA = NCCOCCOCC(=O)O; βAla = NCCC(=O)O
# Experiments:
# [1] = format: in vitro ADME; conditions: 24 h
# Experimental: Plasma and in vivo stability studies were realized as previously described by our group. Briefly, after peptide reconstitution, studies were carried out by incubating the tracers in mouse plasma for a period of 24 h and by injecting around 15 to 25 MBq (400 to 650 μCi; 100 μL) of ^64Cu/peptide to female Balb/c mice; 3 mice per peptide. After 24 h, a portion of the incubation mixtures in plasma or blood samples taken from the back paw were quenched with equal amounts of MeCN, chilled (4°C) and centrifuged, and the supernatant was assayed by HPLC. The stability was also determined by radio-TLC directly from plasma and blood samples without further handling; free ^64Cu and purified radiolabeled peptides were used as standards. The radio-TLCs were eluted on C-18-coated plastic sheets with 0.1 M sodium citrate buffer at pH 5.5 using an instant imager system for the radio-detection.
# in vivo = assay: in vivo; design: species or system Balb/c nude mice; conditions: Balb/c nude, mouse, total radioactivity; for tissue to tissue ratio at 0.5 h / tissue to tissue ratio at 2 h: iv
# Experimental: (§1) Tumor-bearing Balb/c nude mice were injected with 370 to 740 kBq (10 to 20 μCi; 100 μL) of ^64Cu/NOTA-monomer and ^64Cu/NOTA-dimer 2 via the caudal vein and sacrificed with CO2 at different periods of time after injection. Organs of interest were then collected and weighed. -Radioactivity was measured in a gamma counter. The blocking experiments were realized by co-injecting 0.1 μmol of non-radiolabeled peptide. The results were expressed as %ID/g with a minimum of 3 mice for each condition.
# PC3 tumor = assay: in vivo; design: species or system Balb/c nude mice; conditions: Balb/c nude, mouse, 2 h
# Experimental: as §1
# GRPR [2] = molecular target: T1, GRPR (Mus musculus, UniProt P21729); assay: Biodistribution in Balb/c mice (in vivo GRPR-targeting efficacy); conditions: 64Cu-labeled peptide, female Balb/c mice, 30 min p.i.
# T1 construct: using the pancreas, a GRPR-rich tissue, as a target for specific receptor-mediated accumulation; from tissue; host or cells: Female Balb/c mice, in vivo; organs (pancreas and others) collected 30 min p.i
# Experimental: To determine the in vivo GRPR-targeting efficacy of labeled peptides, biodistribution of female Balb/c mice were realized with a minimum of 4 mice for each condition. Briefly, mice were injected with 370 to 740 kBq (10 to 20 μCi; 100 μL) of either ^64Cu/NOTA-monomer, ^64Cu/NOTA-dimer 1 or ^64Cu/NOTA-dimer 2 via the caudal vein. The animals were sacrificed with CO2 at 30 min post-injection [p.i.]. Organs of interest were then collected, weighed and measured in a gamma counter. The results were expressed as percentage of the injected dose per gram of tissue [%ID/g].
# GRPR [3] = molecular target: GRPR (Homo sapiens, UniProt P30550); assay: Competitive binding assay with [125I-Tyr4]bombesin on PC3 cells; design: host or cells: PC3 cells (whole, adherent cells in 24-well plates); conditions: read-out: Ki (affinity for GRPR)
# Experimental: Competition assays were performed in 24-well plates using PC3 cells. The cells were cultured until near confluence, and the medium was replaced by 400 μL of reaction medium (RPMI complemented with 2 mg/mL BSA, 4.8 mg/mL HEPES, 1 U/mL penicillin G and 1 μg/mL streptomycin). For the assay, equal volumes of radioactive and non-radioactive ligands were added. […] The plates were incubated for 40 min at 37°C with agitation. After the incubation, the reaction medium was removed, and the cells were washed three times with PBS at room temperature. The cells were harvested and counted in a gamma counter (Cobra II auto-gamma counter, Packard, MN, USA). Experiments were realized three times in triplicate. Data were analyzed with GraphPad Prism 5 Software (GraphPad Software, San Diego, CA, USA) to determine the IC50. Finally, the Ki was determined using Cheng and Pursoff's formula [32].
# [4] = Solubility in physiological media; format: physicochemical; conditions: 64Cu-labeled peptide; DMF-PBS (10/90 v/v) used to solubilize
# Experimental: Our cyclotron facility provides ^64Cu isotope on a routine basis for research purposes using a target system developed in collaboration with Advanced Cyclotron Systems Inc. (ACSI, Richmond, British Columbia, Canada). ^64Cu was prepared on an EBCO TR-19 cyclotron (EBCO Technologies, Vancouver, Canada) by the ^64Ni(p, n)^64Cu nuclear reaction using an enriched ^64Ni target electroplated on a rhodium disk. [^64Cu]CuCl2 was recovered from the target following the procedure of McCarthy et al. and converted to [^64Cu]copper[II] acetate by dissolving the [^64Cu]CuCl2 in ammonium acetate (0.1 M; pH 5.5). Peptides were labeled with ^64Cu following conditions optimized in our laboratory. Briefly, peptides (5 μg) were dissolved in a 0.1 M ammonium acetate buffer at pH 5.5 with [^64Cu]Cu(OAc)2 (8 to 10 mCi, 296 to 370 MBq) in a total volume of 250 to 300 μL, and then, the resulting solution was incubated at 100°C for 10 min. The labeled product was purified by HPLC using a C-18 column and a radio-detector. The amount of radiolabeled peptide was determined by the peak area of the tracer in the UV-chromatogram compared to the UV peak area of the standard unlabelled peptide (Figure 3). […] The peptide fraction was collected, evaporated and counted in a Capintec radioisotope calibrator (Capintec, Inc., NJ, USA) to calculate the specific activity of the product.
# Sequence of GRPR (Homo sapiens, UniProt P30550) (P30550 whole entry): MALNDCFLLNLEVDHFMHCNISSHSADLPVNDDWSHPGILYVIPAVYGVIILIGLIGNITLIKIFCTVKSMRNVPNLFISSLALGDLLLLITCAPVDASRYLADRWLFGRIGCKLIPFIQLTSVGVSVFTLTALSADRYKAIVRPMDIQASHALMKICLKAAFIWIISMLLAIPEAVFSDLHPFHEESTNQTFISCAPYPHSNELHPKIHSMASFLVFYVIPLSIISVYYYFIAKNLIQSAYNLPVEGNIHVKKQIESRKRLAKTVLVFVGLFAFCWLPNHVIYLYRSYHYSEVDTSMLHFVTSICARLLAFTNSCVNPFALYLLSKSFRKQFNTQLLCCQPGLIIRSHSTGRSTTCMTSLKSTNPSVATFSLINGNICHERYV
# T1 sequence (P21729 whole entry): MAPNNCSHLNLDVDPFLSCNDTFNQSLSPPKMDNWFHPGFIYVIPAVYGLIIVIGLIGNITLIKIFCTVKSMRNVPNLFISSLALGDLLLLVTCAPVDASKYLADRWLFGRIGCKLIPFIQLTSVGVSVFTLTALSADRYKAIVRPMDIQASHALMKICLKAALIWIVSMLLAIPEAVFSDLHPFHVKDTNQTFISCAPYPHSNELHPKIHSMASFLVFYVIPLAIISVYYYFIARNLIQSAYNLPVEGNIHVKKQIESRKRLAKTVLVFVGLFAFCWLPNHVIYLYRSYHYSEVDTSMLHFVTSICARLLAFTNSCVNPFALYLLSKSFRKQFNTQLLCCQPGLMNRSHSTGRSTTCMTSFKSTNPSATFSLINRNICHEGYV
smiles,measurement,setting,value
"CCCC[C@H](NC(=O)[C@H](Cc1cccs1)NC(=O)[C@H](Cc1c[nH]cn1)NC(=O)CCNC(=O)[C@@H](NC(=O)[C@H](C)NC(=O)[C@H](Cc1c[nH]c2ccccc12)NC(=O)[C@H](CCC(N)=O)NC(=O)[C@@H](Cc1ccc(O)cc1)NC(=O)CCC(=O)NCCOCCOCC(=O)N[C@@H](CCCCNC(=O)CN1CCN(CC(=O)O)CCN(CC(=O)O)CC1)C(=O)NCCOCCOCC(=O)NCC(=O)N[C@H](Cc1ccc(O)cc1)C(=O)N[C@@H](CCC(N)=O)C(=O)N[C@@H](Cc1c[nH]c2ccccc12)C(=O)N[C@@H](C)C(=O)N[C@H](C(=O)NCCC(=O)N[C@@H](Cc1c[nH]cn1)C(=O)N[C@@H](Cc1cccs1)C(=O)N[C@@H](CCCC)C(N)=O)C(C)C)C(C)C)C(N)=O [^64Cu/NOTA-dimer 2, metal not drawn] (I: K(NOTA)[AEEA]G[dY]QWAV[βAla]H[2Thi][Nle]-NH2 / II: [dY]QWAV[βAla]H[2Thi][Nle]-NH2; linker I:N-II:N via X1)",Stability in mouse plasma,[1],stable
same,tissue to tissue ratio at 0.5 h,in vivo; Tumor/blood ratio,1.39 ± 0.3
same,tissue to tissue ratio at 2 h,in vivo; Tumor/blood ratio,4.09 ± 1.79
same,tissue to tissue ratio at 0.5 h,in vivo; Tumor/kidney ratio,0.28 ± 0.09
same,tissue to tissue ratio at 2 h,in vivo; Tumor/kidney ratio,0.22 ± 0.11
same,tissue to tissue ratio at 0.5 h,in vivo; Tumor/liver ratio,0.1 ± 0.01
same,tissue to tissue ratio at 2 h,in vivo; Tumor/liver ratio,0.22 ± 0.07
same,tissue to tissue ratio at 0.5 h,in vivo; Tumor/muscle ratio,3.95 ± 1.98
same,tissue to tissue ratio at 2 h,in vivo; Tumor/muscle ratio,4.46 ± 1.86
same,tissue to tissue ratio at 0.5 h,in vivo; Tumor/pancreas ratio,0.89 ± 0.11
same,tissue uptake at 0.5 h,in vivo; Biodistribution Adrenal,9.23 ± 5.01 %ID/g
same,tissue uptake at 0.5 h,in vivo; Biodistribution Blood,3.13 ± 0.67 %ID/g
same,tissue uptake at 0.5 h,in vivo; Biodistribution Bone,0.78 ± 0.21 %ID/g
same,tissue uptake at 2 h,in vivo; Biodistribution Bone,0.83 ± 0.19 %ID/g
same,tissue uptake at 0.5 h,in vivo; Biodistribution Brain,0.38 ± 0.06 %ID/g
same,tissue uptake at 2 h,in vivo; Biodistribution Brain,0.22 ± 0.05 %ID/g
same,tissue uptake at 0.5 h,in vivo; Biodistribution Fat,1.86 ± 0.81 %ID/g
same,tissue uptake at 0.5 h,in vivo; Biodistribution Heart,4.42 ± 1.59 %ID/g
same,tissue uptake at 2 h,in vivo; Biodistribution Heart,2.68 ± 0.13 %ID/g
same,tissue uptake at 0.5 h,in vivo; Biodistribution Kidney,17 ± 6.24 %ID/g
same,tissue uptake at 2 h,in vivo; Biodistribution Kidney,26.4 ± 8.13 %ID/g
same,tissue uptake at 0.5 h,in vivo; Biodistribution Liver,41.8 ± 5.58 %ID/g
same,tissue uptake at 2 h,in vivo; Biodistribution Liver,23.1 ± 2.36 %ID/g
same,tissue uptake at 0.5 h,in vivo; Biodistribution Lungs,7.22 ± 2.73 %ID/g
same,tissue uptake at 0.5 h,in vivo; Biodistribution Muscle,1.59 ± 1.16 %ID/g
same,tissue uptake at 2 h,in vivo; Biodistribution Muscle,1.13 ± 0.62 %ID/g
same,tissue uptake at 0.5 h,in vivo; Biodistribution Pancreas,4.6 ± 0.57 %ID/g
same,tissue uptake at 0.5 h,in vivo; Biodistribution Plasma,5.27 ± 1.27 %ID/g
same,tissue uptake at 0.5 h,in vivo; Biodistribution Spleen,5.31 ± 1.43 %ID/g
same,tissue uptake at 2 h,in vivo; Biodistribution Spleen,5.5 ± 2.61 %ID/g
same,tissue uptake at 0.5 h,in vivo; Biodistribution Tumor,3.95 ± 0.26 %ID/g
same,tissue uptake at 2 h,in vivo; Biodistribution Tumor,6.28 ± 2.87 %ID/g
same,Biodistribution Adrenal,PC3 tumor,11.56 ± 4.91 %ID/g
same,Biodistribution Blood,PC3 tumor,1.34 ± 0.15 %ID/g
same,Biodistribution Fat,PC3 tumor,0.68 ± 0.61 %ID/g
same,Biodistribution Lungs,PC3 tumor,5.07 ± 1.58 %ID/g
same,Biodistribution Pancreas,PC3 tumor,13.35 ± 7.38 %ID/g
same,Biodistribution Plasma,PC3 tumor,2.45 ± 0.27 %ID/g
same,Tumor/pancreas ratio,PC3 tumor; iv,0.36 ± 0.09
"CCCC[C@H](NC(=O)[C@H](Cc1cccs1)NC(=O)[C@H](Cc1c[nH]cn1)NC(=O)CCNC(=O)[C@@H](NC(=O)[C@H](C)NC(=O)[C@H](Cc1c[nH]c2ccccc12)NC(=O)[C@H](CCC(N)=O)NC(=O)[C@@H](Cc1ccc(O)cc1)NC(=O)CCC(=O)NCCOCCOCC(=O)N[C@@H](CCCCNC(=O)CN1CCN(CC(=O)O)CCN(CC(=O)O)CC1)C(=O)NCC(=O)N[C@H](Cc1ccc(O)cc1)C(=O)N[C@@H](CCC(N)=O)C(=O)N[C@@H](Cc1c[nH]c2ccccc12)C(=O)N[C@@H](C)C(=O)N[C@H](C(=O)NCCC(=O)N[C@@H](Cc1c[nH]cn1)C(=O)N[C@@H](Cc1cccs1)C(=O)N[C@@H](CCCC)C(N)=O)C(C)C)C(C)C)C(N)=O [NOTA-dimer 1, BBN(6-14)-Suc-PEG-Lys(NOTA)-Gly-BBN(6-14)] (I: K(NOTA)G[dY]QWAV[βAla]H[2Thi][Nle]-NH2 / II: [dY]QWAV[βAla]H[2Thi][Nle]-NH2; linker I:N-II:N via X1)",Pancreas uptake,GRPR [2],15.6 ± 2.0 %ID/g
same,Ki,GRPR [3],2 ± 1.59 nM
same,Solubility in physiological media,[4],poorly soluble
